Measured values taken from patent publication US8637553B2, “Fluoro substituted omega-carboxyaryl diphenyl urea for the treatment and prevention of diseases and conditions” (Bayer Healthcare LLC, priority 2003, dated 2014).

Tests used:
p38 α2 = target: T1, p38 α2 (Homo sapiens, UniProt Q16539); test: p38 kinase in vitro assay; settings: in vitro kinase biochemical assay
T1 construct: His; made in house; host or cells: E. coli
Method: Purified and His-tagged p38 α2 (expressed in E. Coli) was activated in vitro by MMK-6 to a high specific activity. Using a microtiter format, all reactions were conducted in 100 μL volumes with reagents diluted to yield 0.05 μg/well of activated p38 α2 and 10 μg/well of myelin basic protein in assay buffer (25 mM HEPES 7.4, 20 mM MgCl2, 150 mM NaCl). Test compounds (5 μL of a 10% DMSO solution in water) were prepared and diluted into the assay to cover a final concentration range from 5 nM to 2.5 μM. The kinase assay was initiated by addition of 25 μL of an ATP cocktail to give a final concentration of 10 μM cold ATP and 0.2 μCi [gamma-^33P] ATP per well (200-400 dpm/pmol of ATP). The plate was incubated at 32° C. for 35 min., and the reaction quenched with 7 μL of a 1 N aq HCl solution. The samples were harvested onto a P30 Filtermat (Wallac, Inc.) using a TomTec 1295 Harvester (Wallac, Inc.), and counted in a LKB 1205 Betaplate Liquid Scintillation Counter (Wallac, Inc.). Negative controls included substrate plus ATP alone. SW1353 cellular assay: SW1353 cells (human chondro-sarcoma) are seeded (1000 cells/100 μL DMEM 10% FCS/well) into 96-well plates and incubated overnight. […] Cultures are incubated for 48 h at 37° C., then supernatant IL-6 values are determined by ELISA.

pERK in MDA-MB-231 cells = test: Bio-Plex phospho-ERK 1/2 immunoassay (basal pERK); type: cell-based; settings: Homo sapiens, 2 h incubation
Method: A 96 well pERK immunoassay, using laser flow cytometry (Bio-Rad) platform has been established to measure inhibition of basal pERK in breast cancer cell line. MDA-MB-231 cells were plated at 50,000 cells per well in 96 well microtitre plates in complete growth media. For effects of test compounds on basal pERK½ inhibition, the next day after plating, MDA-MB-231 cells were transferred to DMEM with 0.1% BSA and incubated with test compounds diluted 1:3 to a final concentration of 3 μM to 12 nM in 0.1% DMSO. Cells were incubated with test compounds for 2 h, washed, and lysed in Bio-Plex whole cell lysis buffer A. Samples are diluted with buffer B 1:1 (v/v) and directly transferred to assay plate or frozen at −80 C. degrees until processed. 50 μL of diluted MDA-MB-231 cell lysates were incubated with about 2000 of 5 micron Bio-Plex beads conjugated with an anti-ERK½ antibody overnight on a shaker at room temperature. The next day, biotinylated phospho-ERK½ sandwich immunoassay was performed, beads are washed 3 times during each incubation and then 50 μL of PE-strepavidin was used as a developing reagent. The relative fluorescence units of pERK½ were detected by counting 25 beads with Bio-Plex flow cell (probe) at high sensitivity. The IC50 was calculated by taking untreated cells as maximum and no cells (beads only) as background using in an Excel spreadsheet based program.

MDA-MB-231 cells = test: MDA-MB231 proliferation assay (CellTiter-Glo); type: cell-based; settings: Homo sapiens, 72 hours
Method: Human breast carcinoma cells (MDA MB-231, NCI) were cultured in standard growth medium (DMEM) supplemented with 10% heat-inactivated FBS at 37° C. in 5% CO2 (vol/vol) in a humidified incubator. Cells were plated at a density of 3000 cells per well in 90 μL growth medium in a 96 well culture dish. In order to determine T0h CTG values, 24 hours after plating, 100 μL of CellTiter-Glo Luminescent Reagent (Promega) was added to each well and incubated at room temperature for 30 minutes. Luminescence was recorded on a Wallac Victor II instrument. The CellTiter-Glo reagent results in cell lysis and generation of a luminescent signal proportional to the amount of ATP present, which, in turn is directly proportional to the number of cells present.
Test compounds are dissolved in 100% DMSO to prepare 10 mM stocks. […] The cells with and without individual test compounds were incubated for 72 hours at which time ATP dependent luminescence was measured, as described previously, to yield T72h values. Optionally, the IC50 values can be determined with a least squares analysis program using compound concentration versus percent inhibition. % Inhibition=[1−(T72h test−T0h)/(T72h ctrl−T0h)]×100, where T72h test=ATP dependent luminescence at 72 hours in the presence of test compound T72h ctrl=ATP dependent luminescence at 72 hours in the absence of test compound T0h=ATP dependent luminescence at Time Zero

[1] = test system: phospho-PDGFR-beta in aortic smooth muscle cells; test: pPDGFR-beta in AoSMC cells; type: cell-based; settings: PDGF-BB stimulated
Method: 100K P3-P6 Aortic SMC were plated in each well of 12-well cluster in 1000 μL volume/well of SGM-2 using standard cell culture techniques. Next day, cells were rinsed with 1000 μL D-PBS once, then serum starved in 500 μL SBM (smooth muscle cell basal media) with 0.1% BSA overnight. Compounds were diluted at a dose range from (10 μM to 1 nM in 10-fold dilution steps in DMSO. Final DMSO concentration 0.1%). Remove old media by inversion into the sink quickly then add 100 μL of each dilution to corresponding well of cells for 1 h at 37° C. Cells were then stimulated with 10 ng/mL PDGF-BB ligand for 7 min at 37° C. The media is decanted and 150 μL of isotonic lysis buffer with protease inhibitor tablet (Complete; EDTA-free) and 0.2 mM Na vanadate is added. Cells are lysed for 15 min at 4° C. on shaker in cold room. Lysates are put in eppendorf tubes to which 15 μL of agarose-conjugated anti-PDGFR-beta antibody is added and incubated at 4° C. overnight. Next day, beads are rinsed in 50-volumes of PBS three times and boiled in 1×LDS sample buffer for 5 minutes. Samples were run on 3-8% gradient Tris-Acetate gels and transferred onto Nitrocellulose. Membranes were blocked in 1% BSA/TBS-T for 1 hr. before incubation in anti-phospho-PDGFR-b (Tyr-857) antibody in blocking buffer (1:1000 dilution) for 1 h. […]

T1 sequence (Q16539 whole entry): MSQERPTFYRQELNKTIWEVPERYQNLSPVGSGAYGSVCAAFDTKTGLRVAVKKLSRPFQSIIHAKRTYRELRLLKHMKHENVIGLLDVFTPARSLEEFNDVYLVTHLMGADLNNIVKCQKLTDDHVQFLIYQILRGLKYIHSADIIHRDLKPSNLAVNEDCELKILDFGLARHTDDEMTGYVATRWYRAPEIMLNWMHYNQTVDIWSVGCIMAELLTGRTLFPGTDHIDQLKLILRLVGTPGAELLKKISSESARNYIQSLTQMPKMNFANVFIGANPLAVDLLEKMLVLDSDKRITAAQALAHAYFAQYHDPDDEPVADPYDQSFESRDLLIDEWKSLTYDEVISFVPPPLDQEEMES

In the case of CNC(=O)c1cc(Oc2ccc(NC(=O)Nc3ccc(Cl)c(C(F)(F)F)c3)c(F)c2)ccn1 [Example 1, 4{4-[3-(4-chloro-3-trifluoromethylphenyl)-ureido]-3-fluorophenoxy}-pyridine-2-carboxylic acid methylamide], the IC50 (p38 α2) is reported as 24 nM, the IC50 (pERK in MDA-MB-231 cells) is reported as 22 nM and the IC50 (MDA-MB-231 cells) is reported as 600 nM. The IC50 [1] was 43.6 nM.
